Results from US20030144355A1, “Stabilisation of pigments and polyunsaturated oils and oil concentrates” (priority 1999, published 2003).
Values belong to the molecule of their own block, whether it stands above or below them.

Assays:
[1] = weight-gain oxidative stability test of treated fish oil (induction period), Example 2; assay type: physicochemical; settings: for induction period (IP; time before rapid oxygen uptake): stored at about 35° C.
Protocol: The oxidative stability of oils can be compared by accelerated tests, such as the weight-gain method, where oil samples are stored at elevated temperatures and oxygen atmosphere. The weight increase due to oxygen absorption is measured and plotted against time. At a certain time, depending on the oils resistance to oxidation, weight increase will be rapid, and the time before this happens is noted as the oils induction time (IP).
0.083 moles of amine/amide was added to 95 g of a fish oil, which was progressively heated to 90° C. (A series) or 140° C. (B series) during agitation to dissolve the substances in the oil. After 30 minutes at this temperature, the oil was cooled and filtered.
Three 3-g samples of filtered untreated oil, and three 3-g samples of filtered oil from each of the treatments described in table 1, were placed in identical petri dishes (60 mm, with loose fitting lids) and accurately weighed. The petri dishes were placed in an oven at about 35° C., and the weight increase related to oxygen uptake (oxidation) was recorded by weighing 3 times/week.
The results given in FIG. 4 and in FIG. 5 indicates large differences in stability as measured by induction periods (IP; i.e. the time before rapid oxygen uptake), ranging from 17 days (oils heated to 90° C. or 140° C. without any substance added) and 19 days (untreated oil), to 95 days (oils treated with hexylamine at 90° C., or allylurea at 140° C., or N,N′-dimethylurea at 140° C.).

solubility in oil = assay type: physicochemical; settings: ambient temperature
[2] = fish oil treated with 0.083 moles per 95 g oil at 140° C. for 30 minutes

stability in prolonged storage ([1]; fish oil treated at 90° C., experiment continued for another 70 days, about 35° C.): still were stable | induction period (IP; time before rapid oxygen uptake) ([1]; fish oil treated with 0.083 moles per 95 g oil at 90° C. for 30 minutes): 95 days
Compound: CCCCCCN [A3, Hexylamine]

day of rapid weight increase, prolonged storage ([1]; fish oil treated at 140° C., experiment continued for another 70 days, about 35° C.): 135 days | induction period (IP; time before rapid oxygen uptake) [1, 2]: 95 days
Compound: CNC(=O)NC [B4, N,N′-dimethylurea]

induction period (IP; time before rapid oxygen uptake) [1, 2]: 95 days
Compound: C=CCNC(N)=O [allylurea, Allylurea]

solubility in oil (solubility in oil): approx. 1 g per kg oil
Compound: NC(N)=O [urea]
